Assay results from PMC6316234, “Bromopyrrole Alkaloids from the Sponge Agelas kosrae” (Marine Drugs, 2018).
Where two headings read alike, the source gives them in different places.

Columns and labels:
[1] = target: Candida albicans-derived isocitrate lyase (ICL) (Candida albicans, UniProt Q9P8Q7); assay: biochemical; assay type: biochemical
Description: A 1 mL aliquot of the reaction mixture contained 20 mM sodium phosphate buffer (pH 7.0), 1.27 mM threo-DL-(+)-isocitrate, 3.75 mM MgCl2, 4.1 mM phenylhydrazine, and 2.5 μg/mL of recombinant ICL. The reaction was immediately initiated following the addition of a substrate with or without a prescribed concentration of the inhibitor dissolved in DMSO (final concentration, 1%). Glyoxylate phenylhydrazone formation was spectrophotometrically assessed at 324 nm after incubation at 37 °C for 30 min. The percent inhibition of ICL enzyme activity for each compound was calculated relative to the inhibitor-free control and the IC50 values were calculated using nonlinear regression analysis (percent inhibition versus concentration). 3-Nitropropionic acid was used as a positive control. Protein concentrations were measured using the Bradford method with the Bio-Rad protein assay kit (Bio-Rad) and bovine serum albumin as the standard.

[2] = system: MDA-MB-231; assay: Anti-proliferative activity, SRB staining assay, MDA-MB-231; assay type: cell-based; details: Homo sapiens, 72 h, read-out: IC50 Anti-Proliferation MDA-MB-231
Description: (§1) Anti-proliferative activity was evaluated using SRB staining assay in various cancer cell lines (K562, A549, HCT116, MDA-MB-231, SNU638, SK-Hep-1). Cells were purchased from the American Type Culture Collection (ATCC, Rockville, MD, USA). They were cultured in media supplemented with 10% fetal bovine serum (FBS) and antibiotics–antimycotics (PSF; 100 units/mL penicillin G sodium, […], and 250 ng/mL amphotericin B). All cells were maintained at 37 °C under a humidified atmosphere containing 5% CO2. Briefly, cells were seeded in 96-well plates with various doses of compounds and incubated for 72 h. The cells were stained as previously described. First, cells were fixed with 10% trichloroacetic acid and stained with 0.4% SRB in a 1% acetic acid solution. After washing and drying, dyes were dissolved in 10 mM Tris buffer (pH 10.0) and absorbance was measured at 515 nm. The percentage of cell proliferation was determined according to the following formula: cell proliferation (%) = 100 × ((A treated − A zero day)/(A control − A zero day)), where A is the average absorbance. The IC50 values were calculated through non-linear regression analysis using TableCurve 2D v5.01 (Systat Software Inc., San Jose, CA, USA).

[3] = system: SK-Hep-1; assay: Anti-proliferative activity, SRB staining assay, SK-Hep-1; assay type: cell-based; details: Homo sapiens, SK-HEP1, 72 h, read-out: IC50 Anti-Proliferation SK-Hep-1
Description: as §1

[4] = system: human umbilical vein endothelial cells (HUVEC); assay: Anti-angiogenic activity, VEGF-induced tube formation assay; assay type: cell-based; details: for IC50: Homo sapiens, HUVEC, VEGF 50 ng/mL, 6 h, read-out: IC50 Anti-Angiogenesis Tube Formation
Description: (§2) Anti-angiogenic activity was evaluated using human umbilical vein endothelial cells (HUVEC) using previously described experimental methods. HUVEC cells were purchased from the American Type Culture Collection (ATCC, Rockville, MD, USA) and cultured in EGM-2 (Lonza, Walkerswille, MD, USA) supplemented with 10% fetal bovine serum (FBS) and antibiotics–antimycotics (PSF; 100 units/mL penicillin G sodium, […], and 250 ng/mL amphotericin B). Briefly, HUVEC cells were mixed with tested compounds in 0.5% FBS EBM-2 media stimulated with or without VEGF (50 ng/mL) on matrigel-coated 96-well plates for 6 h at 37 °C under a humidified atmosphere containing 5% CO2. After the tube formation, cells were photographed using an inverted microscope (Olympus Optical Co. Ltd., Tokyo, Japan), then images were quantified with Angiogenesis Analyzer using Image J software. Tube formation activity was calculated using the following formula: (Total segment # (tested compound) − Total segment # (VEGF−))/(Total segment # (VEGF+) − Total segment # (VEGF−)) × 100. The IC50 value was calculated through non-linear regression analysis using TableCurve 2D v5.01 (Systat Software Inc., San Jose, CA, USA). Cell viability with HUVEC cells were measured independently. First, HUVEC cells were seeded into a 96-well plate and the culture medium was replaced with a serum-free medium when it reached 60% confluency. After overnight starvation, cells were treated with samples and VEGF (50 ng/mL) in 2% FBS EBM-2 medium. Cells were further incubated for 24 h, and MTT assay was used to measure the cell viability. The formazan products were dissolved in dimethyl sulfoxide (DMSO). The absorbance was measured at 570 nm using VersaMax ELISA microplate reader (Molecular Devices, Sunnyvale, CA, USA).

[5] = system: K562; assay: Anti-proliferative activity, SRB staining assay, K562; assay type: cell-based; details: Homo sapiens, 72 h
Description: as §1

[6] = system: HCT116; assay: Anti-proliferative activity, SRB staining assay, HCT116; assay type: cell-based; details: Homo sapiens, HCT-116, 72 h, read-out: IC50 Anti-Proliferation HCT 116
Description: as §1

[7] = system: human umbilical vein endothelial cells (HUVEC); assay: HUVEC cell viability, MTT assay; assay type: cell-based; details: VEGF 50 ng/mL, 24 h, read-out: IC50 Anti-Angiogenesis Cell Viability
Description: as §2

[8] = system: A549; assay: Anti-proliferative activity, SRB staining assay, A549; assay type: cell-based; details: Homo sapiens, 72 h, read-out: IC50 Anti-Proliferation A549
Description: as §1

[9] = system: SNU638; assay: Anti-proliferative activity, SRB staining assay, SNU638; assay type: cell-based; details: Homo sapiens, SNU-638, 72 h, read-out: IC50 Anti-Proliferation SNU 638
Description: as §1

[10] = recombinant ICL, 37 °C, 30 min, read-out: IC50 ICL

Candida albicans-derived isocitrate lyase (ICL), sequence (Q9P8Q7 whole entry): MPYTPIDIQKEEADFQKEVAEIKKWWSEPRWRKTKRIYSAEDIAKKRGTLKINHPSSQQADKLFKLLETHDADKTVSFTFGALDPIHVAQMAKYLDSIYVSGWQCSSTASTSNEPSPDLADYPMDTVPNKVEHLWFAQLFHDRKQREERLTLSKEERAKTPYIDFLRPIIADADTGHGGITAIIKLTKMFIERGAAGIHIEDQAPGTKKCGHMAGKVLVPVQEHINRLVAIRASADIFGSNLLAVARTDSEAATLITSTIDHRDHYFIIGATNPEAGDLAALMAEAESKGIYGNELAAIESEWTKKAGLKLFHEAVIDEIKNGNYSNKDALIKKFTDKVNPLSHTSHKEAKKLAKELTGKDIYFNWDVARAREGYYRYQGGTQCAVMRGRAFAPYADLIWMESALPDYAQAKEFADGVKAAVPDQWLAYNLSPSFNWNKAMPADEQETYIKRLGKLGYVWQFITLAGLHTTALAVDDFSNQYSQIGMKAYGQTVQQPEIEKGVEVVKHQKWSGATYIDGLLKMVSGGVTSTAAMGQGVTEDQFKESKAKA

| IC50 [2] [µM] | IC50 [3] [µM] | IC50 [5] [µM] | IC50 [6] [µM] | IC50 [1, 10] [µM] | IC50 [8] [µM] | IC50 [9] [µM] | inhibition of isocitrate lyase (ICL) [1] | Structure (SMILES) | IC50 [1] [µM] | IC50 [4] [µM] | IC50 [7] [µM] | anti-angiogenic activity in the tube formation assay ([4]; non-cytotoxic concentrations range 5–20 μM) |
| --- | --- | --- | --- | --- | --- | --- | --- | --- | --- | --- | --- | --- |
| > 50 | > 50 | 37.6 | > 50 | > 100 | > 50 | > 50 | – | COC(=O)[C@@H]1[C@@H](CNC(=O)c2cc(Br)c[nH]2)[C@H](CNC(=O)c2cc(Br)c[nH]2)[C@H]1C(=O)O [Compound 3, ageleste A] | – | > 40 | > 40 | – |
| > 50 | > 50 | 19.1 | 44.1 | 22.1 | 49.3 | 36.8 | moderate inhibition | O=C(NC[C@H]1[C@H](CNC(=O)c2cc(Br)c[nH]2)[C@@H](C(=O)O)[C@@H]1C(=O)O)c1cc(Br)c[nH]1 [Compound 2, ageleste C] | – | > 40 | > 40 | – |
| 32.8 | 35.2 | 12.9 | 9.93 | > 100 | 31.3 | 7.92 | – | NC1=NC(=O)C([C@@H]2[C@@H](CNC(=O)c3cc(Br)c[nH]3)[C@H](CNC(=O)c3cc(Br)c[nH]3)[C@H]2C2NC(N)=NC2=O)N1 (mixture of isomers) [Compound 1, dioxysceptrin] | – | 7.99 | > 40 | moderate anti-angiogenic activity |
| > 50 | > 50 | 26.4 | 38.2 | 85.3 | 30.5 | 37.1 | – | COC(=O)[C@@H]1[C@@H](CNC(=O)c2cc(Br)c[nH]2)[C@H](CNC(=O)c2cc(Br)c[nH]2)[C@H]1C(=O)OC [Compound 4, ageleste B] | – | > 40 | > 40 | – |

The remaining lines, values behind:

| Structure (SMILES) | IC50 [2] [µM] | IC50 [3] [µM] | IC50 [5] [µM] | IC50 [6] [µM] | IC50 [1, 10] [µM] | IC50 [8] [µM] | IC50 [9] [µM] | inhibition of isocitrate lyase (ICL) [1] | IC50 [1] [µM] | IC50 [4] [µM] | IC50 [7] [µM] | anti-angiogenic activity in the tube formation assay ([4]; non-cytotoxic concentrations range 5–20 μM) |
| --- | --- | --- | --- | --- | --- | --- | --- | --- | --- | --- | --- | --- |
| O=C(O)CC[N+](=O)[O-] [Compound 3-NP, 3-Nitropropionic acid, reference compound] | – | – | – | – | – | – | – | – | 11.1 | – | – | – |
| COc1cccc2c1C(=O)c1c(O)c3c(c(O)c1C2=O)C[C@@](O)(C(=O)CO)C[C@@H]3O[C@H]1C[C@H](N)[C@H](O)[C@H](C)O1 [Doxorubicin, reference compound] | – | – | 1.08 | – | – | – | – | – | – | – | – | – |
| CCN(CC)CCNC(=O)c1c(C)[nH]c(/C=C2\C(=O)Nc3ccc(F)cc32)c1C [Sunitinib, sunitinib, reference compound] | – | – | – | – | – | – | – | – | – | 2.41 | 9.92 | – |
| COc1cc([C@@H]2c3cc4c(cc3[C@@H](O[C@@H]3O[C@@H]5CO[C@@H](C)O[C@H]5[C@H](O)[C@H]3O)[C@H]3COC(=O)[C@H]23)OCO4)cc(OC)c1O [Etoposide, reference compound] | 3.12 | 0.74 | – | 0.73 | – | 0.83 | 0.63 | – | – | – | – | – |
